For series [1], the system named is HCT 116 colon cancer xenograft. The series is described as follows: In vivo efficacy, mouse xenograft.
Series [2] relates to phospho-histone H3 in HCT 116 cells. The series is described as follows: Phospho-histone H3 staining (High Content Screening). The following applies: Homo sapiens. The series is classed as cell-based. As for the experimental part:
Analysis of phospho-histone H3 (pHH3) levels was performed on adherent cells using high-content screening methodology. […]. This series was diluted 1000× in RPMI-1640 containing 10% FBS (1× treatment concentration: 10 μM-0.0002 μM). […].
Then, medium was aspirated and cells were incubated in 100 μL/well 4% formaldehyde for 15 min at room temperature.
[…]. […] Data were fit to an IC50 equation. […]. Cells were trypsinized, collected, lysed, and analyzed by immunoblotting.

In series [3] the test system is cleaved PARP in HCT 116 xenograft tumors. The series is described as follows: PARP cleavage in tumor lysates (western blotting). Type of series: in vivo, mouse. The following applies: single IP dose 170 mg/kg. Here is the method:
(§1) PARP cleavage was measured in HCT 116 (colon carcinoma) and MV-4-11 tumor lysates by western blotting. […] HCT 116 tumors were collected 3, 6 and 12 hrs post dosing; MV-4-11 tumors were collected at 2, 6 and 24 hrs post dosing. […] Tumors were lysed in cell extraction buffer (Biosource # FNN0011) containing protease inhibitors (Sigma # P2714), and PMSF Phenylmethanesulfonyl fluoride (PMSF) [#P7626, Sigma]. Forty micrograms of protein for each sample was loaded and run on 4-12% Tris-Glycine NuPAGE gel (Invitrogen), in Novex Tris-Glycine running buffer (Invitrogen). After gel separation, proteins were electro-transferred to a PVDF membrane (Invitrogen).
On the technique in general: In western blotting, separated proteins are transferred to a membrane and probed.

The test system of series [4] is cleaved PARP in MV-4-11 xenograft tumors. The series is described as follows: PARP cleavage in tumor lysates (western blotting). The series is classed as in vivo, mouse. The following applies: single IP dose 50 mg/kg or 100 mg/kg; 2, 6, 24 hrs. Here is the method:
as §1

For series [5], the system named is PC3 prostate tumor xenograft. The series is described as follows: In vivo efficacy, mouse xenograft. As for the experimental part:
Percent TGI is then calculated with the following equation: […]
Time To Endpoint (TTE) was calculated for each individual animal to reach the predetermined study end point where the tumor volume becomes 1200 mm^3 or 10% of body weight or a greater than 20% body weight loss for two sequential measurements. The TTE is calculated and the median value is recorded for the group. Tumor Growth Delay (TGD) is then calculated with the following equation: […]
PC3 prostate tumor fragments (1 mm^3) were implanted subcutaneously in the right hind flank of mice. After 21 days, when tumors reached a volume of approximately 120 mm^3, animals were weighed, randomized by tumor volume (l×w×h×0.52), and assigned to the various study groups before initial dosing.

The target of series [6] is T1, DDR2 (Homo sapiens, UniProt Q16832).
T1 construct: purchased Upstate Biotechnology, Dundee, UK
The experiment in a line: Radiometric kinase assay (Upstate panel). Type of series: biochemical.

Series [7] can be described thus: Mass balance, elimination, autoradiography and metabolites with 14C-label. The settings on record: male rats, 14C-labeled Compound 1 IV bolus 50 mg/kg, total radioactivity. The series is classed as in vivo. Here is the method:
Treated rats were further cannulated in femoral vein and the bile duct to allow for the evaluation of the rate and extent of elimination of total radioactivity from urine, bile, and feces. Total radioactivity was analyzed by liquid scintillation counting.
Preparation of samples for metabolite analysis was as follows. Plasma samples were extracted by protein precipitation with acetonitrile. The extraction was preformed by adding ice cold acetonitrile (3 parts) to plasma (1 part v/v). After the samples were mixed using a benchtop vortex mixer the samples were centrifuged, the supernatants were transferred to silanized glass tubes, evaporated to dryness under nitrogen, and reconstituted in 50/50 acetonitrile/water solution. Urine samples were directly injected. Bile samples containing radioactivity were diluted in water prior to injection.
Metabolites in plasma, urine, and bile were separated on a reverse phase HPLC column with an Agilent 1000 system (Santa Clara, Calif.).

The nature of series [8]: Rising dose pharmacokinetics (exposure, gender). Type of series: in vivo, rats. The following applies: for clearance / half-life / Vd: Sprague-Dawley, plasma, iv. The source says: Pharmacokinetic parameters were estimated using noncompartmental analysis within WinNonlin v. 4.1. […] For rising dose experiments measuring exposure for each species, sets containing several animals were singly dosed at a given dose.

A short description of series [9]: Pharmacokinetics, single bolus intravenous injection. The settings on record: beagle, dog, plasma, 5 mg/kg. The series is classed as in vivo, beagle dogs. An excerpt: Pharmacokinetic parameters were estimated using noncompartmental analysis within WinNonlin v. 4.1. Quantification of Compound 2 was done by HPLC-MS/MS after extraction from plasma with acetonitrile. […] For rising dose experiments measuring exposure for each species, sets containing several animals were singly dosed at a given dose. Results from single-dose experiments are shown in FIG. 10A, Table 43, and in FIG. 10B and Table 44, respectively. […] C0 is initial concentration extrapolated to time zero. AUCINF is area under the plasma-concentration time curve from time zero extrapolated to the infinite time. CL is clearance; Vss is steady state volume of distribution. T1/2 is half-life.

T1 sequence (Q16832 22-855): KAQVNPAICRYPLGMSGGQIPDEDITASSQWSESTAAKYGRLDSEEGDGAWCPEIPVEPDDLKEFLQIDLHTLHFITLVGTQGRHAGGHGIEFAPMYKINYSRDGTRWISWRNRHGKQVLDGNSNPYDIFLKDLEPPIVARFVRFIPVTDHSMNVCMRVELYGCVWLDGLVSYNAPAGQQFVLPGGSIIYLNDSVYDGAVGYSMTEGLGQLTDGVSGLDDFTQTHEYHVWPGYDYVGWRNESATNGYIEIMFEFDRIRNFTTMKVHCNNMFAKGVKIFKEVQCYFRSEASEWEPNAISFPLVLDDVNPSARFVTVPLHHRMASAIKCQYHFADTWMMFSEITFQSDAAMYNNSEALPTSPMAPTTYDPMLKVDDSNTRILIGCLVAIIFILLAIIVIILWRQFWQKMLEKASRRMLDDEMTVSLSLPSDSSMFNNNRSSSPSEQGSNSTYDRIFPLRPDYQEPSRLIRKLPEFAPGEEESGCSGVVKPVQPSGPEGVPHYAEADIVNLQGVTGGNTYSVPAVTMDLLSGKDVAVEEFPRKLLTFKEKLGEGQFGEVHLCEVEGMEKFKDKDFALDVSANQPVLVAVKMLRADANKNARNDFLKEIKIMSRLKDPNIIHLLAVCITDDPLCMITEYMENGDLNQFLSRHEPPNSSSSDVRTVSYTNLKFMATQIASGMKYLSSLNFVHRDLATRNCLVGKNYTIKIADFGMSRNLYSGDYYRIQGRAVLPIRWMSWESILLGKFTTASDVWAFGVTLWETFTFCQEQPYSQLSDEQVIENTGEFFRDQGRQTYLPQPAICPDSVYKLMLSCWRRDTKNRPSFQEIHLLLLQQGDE

For `CS(=O)(=O)O.O=C(Nc1cccc(Cl)c1)Nc1ncc(CCNc2ncnc3ccsc23)s1` [Compound 1, 1-(3-chlorophenyl)-3-{5-[2-(thieno[3,2-d]pyrimidin-4-ylamino)ethyl]thiazo}-urea], the “% TGI (Day 36)” value stood at 91.6% in [1] (100 mg/kg, qd × 5, 9 d off × 2); 79.8% in series [1] (125 mg/kg, Qw × 3); 95.6% in series [1] (150 mg/kg, biw × 3). In addition, the EC50 in series [2] (HCT 116, 1 hour treatment, read-out: EC50 of the reduction of pHH3) is about 9 nM. In addition, the IC50 in series [2] (HCT 116, 1 hour, pHH3 staining) stood at 9 nM; in [6], 0.082 µM. Moreover, in [3], the “time after dose PARP cleavage is maintained” value is given as “at least 12 hr”. Also, in series [3], the “time after dose at which PARP cleavage became evident” value was 3 h. Moreover, in series [4], the PARP cleavage result was “dose- and time-dependent”. In addition, the results for the “% TGI” value in [5] (42.5 mg/kg biw × 3), in series [5] (85 mg/kg biw × 3) and in series [5] (170 mg/kg biw × 3) were 39.5%, 63.6% and 67.5%, respectively. Moreover, the TGD in series [5] (42.5 mg/kg biw × 3) is on record as 0 days; in series [5] (85 mg/kg biw × 3), 12 days; in series [5] (170 mg/kg biw × 3), 25 days.
Regarding `O=C(Nc1cccc(Cl)c1)Nc1ncc(CCNc2ncnc3ccsc23)s1` [Compound 2, 1-(3-chlorophenyl)-3-{5-[2-(thieno[3,2-d]pyrimidin-4-ylamino)ethyl]thiazol-2-yl}-urea], the “Mean cumulative % recovery” value in series [7] (Bile, interval 0-8 hr) is 39.7%; in [7] (Bile, interval 8-24 hr), 68.5%; in [7] (Bile, interval 24-48 hr), 69.5%; in series [7] (Cumulative Total, 24 hr) it was 89.7%; in series [7] (Cumulative Total, 48 hr) it was 92.3%; in series [7] (Feces, interval 0-24 hr) it was 11.8%. Also, the “Mean cumulative % recovery” value in series [7] (Feces, interval 24-48 hr) turned out to be 13.2%; in series [7] (Urine, interval 0-8 hr) it was 6.1%; in series [7] (Urine, interval 8-24 hr), 9.4%; in series [7] (Urine, interval 24-48 hr), 9.6%. Further, the clearance in series [8] (60 mg/m2, rat, 60 mg/m^2) is 17.2 mL/min/kg; in series [8] (300 mg/m2, rat, 300 mg/m^2), 4 mL/min/kg; in [8] (600 mg/m2, rat, 600 mg/m^2), 2 mL/min/kg; in [9], 6.8 mL/min/kg. The half-life was 1.4 h in series [8] (60 mg/m2, rat, 60 mg/m^2); 1.7 h in series [8] (300 mg/m2, rat, 300 mg/m^2); 5.9 h in series [8] (600 mg/m2, rat, 600 mg/m^2); 1.1 h in [9]. Further, the Vd in series [8] (60 mg/m2, rat, 60 mg/m^2, read-out: Vss) came out at 1.3 L/kg; in series [8] (300 mg/m2, rat, 300 mg/m^2, read-out: Vss), 1.1 L/kg; in [8] (600 mg/m2, rat, 600 mg/m^2, read-out: Vss) it was 1.1 L/kg; in series [9] (read-out: Vss), 1 L/kg. Also, the “dose dependence of systemic exposure (AUC)” value in series [8] (most pronounced in rats and mice, lesser extent in dogs) is “non-linear systemic exposure”. Moreover, in series [9], the AUC(0-inf) worked out at 12300 ng·h/mL. In addition, the C0 in series [9] was determined as 2800 ng/mL.

A word on the EC50: it is the concentration needed to bring the measured effect to its halfway point. Broadly, the IC50 is the midpoint of a concentration-inhibition curve. As usually defined, the clearance is the volume of plasma or blood freed of the substance per unit of time. Low readings indicate inefficient removal, high ones efficient removal. Usually half-life stands for the time in which the quantity being followed falls by half. High values mean slow decline, low ones rapid decline. As a reminder, the AUC(0-inf) is total exposure, with the tail of the curve extrapolated. Low readings indicate low exposure, high ones high exposure.

Source of the values: patent US20110293745A1, “AURORA KINASE INHIBITORS” (SUNESIS PHARMACEUTICALS, INC., priority 2008, published 2011).
